Measurements: patent US9957268B2, “1H-pyrrolo[2,3,c]pyridin-7(6H)-ones and pyrazolo[3,4-c]pyridin-7(6H)-ones as inhibitors of BET proteins” (Incyte Corporation, priority 2014, dated 2018)

Experiments:
BRD4-BD2 = BRD4-BD2 (Homo sapiens (Human), UniProt O60885); experiment: BRD4 AlphaScreen assay (BRD4-BD2); assay type: binding; conditions: biotin-labeled tetra-acetylated histone H4 peptide
Description: (§1) BRD4-BD1 and BRD4-BD2 assays were conducted in white 384-well polystyrene plate in a final volume of 40 μL for BD1 and 60 μL for BD2. Inhibitors were first serially diluted in DMSO and added to the plate wells before the addition of other reaction components. The final concentration of DMSO in the assay was 1.25% (BD1) and 0.83% (BD2). The assays were carried out at room temperature in the assay buffer (50 mM Tris-HCl, pH 7.5, 0.01% Tween-20, 0.01% BSA, 5 mM DTT), containing 50 nM Biotin-labeled tetra-acetylated histone H4 peptide (H4Ac4) and BRD4-BD1 or BRD4-BD2 protein at concentration less than 1 nM. The incubation for 75 min. was followed by the addition of 20 μL of assay buffer supplemented with Streptavidin donor beads (PerkinElmer 6760002) and GSH Acceptor beads (PerkinElmer-AL109C) at final concentration 2-4 μg/mL under reduced light. After plate sealing, the plate was incubated in the dark at room temperature for 75 min. before reading on a PHERAstar FS plate reader (BMG Labtech). IC50 determination was performed by fitting the curve of percent control activity versus the log of the inhibitor concentration using the GraphPad Prism 5.0 software.

BRD4-BD1 = BRD4-BD1 (Homo sapiens (Human), UniProt O60885); experiment: BRD4 AlphaScreen assay (BRD4-BD1); assay type: binding; conditions: biotin-labeled tetra-acetylated histone H4 peptide
Description: as §1

| Compound | IC50 (BRD4-BD2) | IC50 (BRD4-BD1) |
| --- | --- | --- |
| CC(C)C1Oc2c(cc(-c3ccco3)cc2-c2cn(C)c(=O)c3[nH]ccc23)NC1=O (stereo not drawn) [Example 43, 6-(2-furyl)-2-isopropyl-8-(6-methyl-7-oxo-6,7-dihydro-1H-pyrrolo[2,3-c]pyridin-4-yl)-2H-1,4-benzoxazin-3(4H)-one] | ≤ 100 nM | 100 to 1000 nM |
| COc1cc2c(c(-c3cn(C)c(=O)c4[nH]ccc34)c1)OC(C(C)C)C(=O)N2 (single isomer, unassigned) [Example 9A, 2-isopropyl-6-methoxy-8-(6-methyl-7-oxo-6,7-dihydro-1H-pyrrolo[2,3-c]pyridin-4-yl)-2H-1,4-benzoxazin-3(4H)-one] | ≤ 100 nM | ≤ 100 nM |
| CNC(=O)c1cc2c(c(-c3cn(C)c(=O)c4[nH]ccc34)c1)OC(C(C)C)C(=O)N2 (stereo not drawn) [Example 20, 2-isopropyl-N-methyl-8-(6-methyl-7-oxo-6,7-dihydro-1H-pyrrolo[2,3-c]pyridin-4-yl)-3-oxo-3,4-dihydro-2H-1,4-benzoxazine-6-carboxamide] | ≤ 100 nM | ≤ 100 nM |
| CC(=O)c1cc2c(c(-c3cn(C)c(=O)c4[nH]ccc34)c1)OC(C)(C)C(=O)N2 [Example 80, 6-acetyl-2,2-dimethyl-8-(6-methyl-7-oxo-6,7-dihydro-1H-pyrrolo[2,3-c]pyridin-4-yl)-2H-1,4-benzoxazin-3(4H)-one] | ≤ 100 nM | ≤ 100 nM |
| Cn1cc(-c2cccc3c2OC(C2CC2)C(=O)N3)c2cc[nH]c2c1=O (stereo not drawn) [Example 6, 2-cyclopropyl-8-(6-methyl-7-oxo-6,7-dihydro-1H-pyrrolo[2,3-c]pyridin-4-yl)-2H-1,4-benzoxazin-3(4H)-one] | ≤ 100 nM | ≤ 100 nM |
| Cn1cc(-c2cc(S(C)(=O)=O)cc3c2NC(C)(C)C(=O)N3)c2cc[nH]c2c1=O [Example 58, 3,3-dimethyl-5-(6-methyl-7-oxo-6,7-dihydro-1H-pyrrolo[2,3-c]pyridin-4-yl)-7-(methylsulfonyl)-3,4-dihydroquinoxalin-2(1H)-one] | ≤ 100 nM | ≤ 100 nM |
| CCC1Oc2c(-c3cn(C)c(=O)c4[nH]ccc34)cccc2N(C)C1=O (stereo not drawn) [Example 8, 2-ethyl-4-methyl-8-(6-methyl-7-oxo-6,7-dihydro-1H-pyrrolo[2,3-c]pyridin-4-yl)-2H-1,4-benzoxazin-3(4H)-one] | ≤ 100 nM | 100 to 1000 nM |
| Cn1cc(-c2cccc3c2OC2(CC2)C(=O)N3)c2cc[nH]c2c1=O [Example 30, 8-(6-methyl-7-oxo-6,7-dihydro-1H-pyrrolo[2,3-c]pyridin-4-yl)spiro[1,4-benzoxazine-2,1′-cyclopropan]-3(4H)-one] | ≤ 100 nM | ≤ 100 nM |
| CCC1Oc2c(cccc2-c2cn(C)c(=O)c3[nH]ccc23)NC1=O (stereo not drawn) [Example 4, 2-ethyl-8-(6-methyl-7-oxo-6,7-dihydro-1H-pyrrolo[2,3-c]pyridin-4-yl)-2H-1,4-benzoxazin-3(4H)-one] | ≤ 100 nM | 100 to 1000 nM |
| COc1cc(-c2cn(C)c(=O)c3[nH]ccc23)c2c(c1)N(Cc1ccncc1)C(=O)C(C(C)C)O2 (stereo not drawn) [Example 15, 2-isopropyl-6-methoxy-8-(6-methyl-7-oxo-6,7-dihydro-1H-pyrrolo[2,3-c]pyridin-4-yl)-4-(pyridin-4-ylmethyl)-2H-1,4-benzoxazin-3(4H)-one] | ≤ 100 nM | ≤ 100 nM |
| CN1C(=O)C2(CC2)Oc2c(-c3cn(C)c(=O)c4[nH]ccc34)cc(S(C)(=O)=O)cc21 [Example 63, 4-methyl-8-(6-methyl-7-oxo-6,7-dihydro-1H-pyrrolo[2,3-c]pyridin-4-yl)-6-(methylsulfonyl)spiro[1,4-benzoxazine-2,1′-cyclopropan]-3(4H)-one] | ≤ 100 nM | ≤ 100 nM |
| CNS(=O)(=O)c1cc2c(c(-c3cn(C)c(=O)c4[nH]ccc34)c1)OC(C(C)C)C(=O)N2 (stereo not drawn) [Example 68, 2-isopropyl-N-methyl-8-(6-methyl-7-oxo-6,7-dihydro-1H-pyrrolo[2,3-c]pyridin-4-yl)-3-oxo-3,4-dihydro-2H-1,4-benzoxazine-6-sulfonamide] | ≤ 100 nM | ≤ 100 nM |
